Data set [1] concerns Human glioblastoma cell line U87. Nature of the data set: MTT cell viability assay, U87. It is filed as cell-based. The settings on record: MTT, 72 h, read-out: IC50 antiproliferative activity U87. How it is done:
Human GBM U87 cell line was purchased from the American Type Culture Collection (ATCC). Cells were cultured in Dulbecco’s modified Eagle’s medium (DMEM) supplemented with 10% fetal bovine serum (FBS) and maintained in a 37°C, 5% CO2 incubator. After cells were routinely passaged at 2- to 3-day intervals, experiments were carried out when the cells entered exponential growth phase.
Cell viability was measured using the 3-(4,5-dimethylthiazol-2-yl)-2,5-diphenyltetrazolium bromide (MTT) assay and was expressed as a ratio to the absorbance value at 570 nm of the control cells.
(In general: Tetrazolium dyes change colour on reduction, which living cells bring about.)

The target of a further data set is HDAC4 (Homo sapiens, UniProt P56524). Put plainly: HDACs inhibition assay, HDAC4.
A further data set has as its system U87 tumor xenograft. The settings on record: nude mice, 20 mg/kg once daily. The source says: Six-week-old BALB/c nude mice were purchased from Shanghai Experimental Animal Center of Chinese Academy of Science (Shanghai, China). All animal protocols were implemented according to the guidelines of the Association for Assessment and Accreditation of Laboratory Animal Care. U87 cells (3 × 10^6) were subcutaneously implanted into the right flank of mice. After 6 days of tumor growth, tumors grew to approximately 100 mm^3, and mice were randomly divided into three groups with nine animals in each group. […] The control group was intraperitoneally injected an equal volume of DMSO. Body weights and tumor volumes were measured every 2 days. After treatment, all of the mice were sacrificed, and the tumors were harvested, weighted, and photographed. The tumor volume was calculated according the formula: tumor volume = (length × width^2)/2.
U87 cells were subcutaneously inoculated into the right flank of mice.

We go through one molecule from PMC8602566 (Frontiers in Oncology, 2021).

Sequence of HDAC4 (P56524 whole entry): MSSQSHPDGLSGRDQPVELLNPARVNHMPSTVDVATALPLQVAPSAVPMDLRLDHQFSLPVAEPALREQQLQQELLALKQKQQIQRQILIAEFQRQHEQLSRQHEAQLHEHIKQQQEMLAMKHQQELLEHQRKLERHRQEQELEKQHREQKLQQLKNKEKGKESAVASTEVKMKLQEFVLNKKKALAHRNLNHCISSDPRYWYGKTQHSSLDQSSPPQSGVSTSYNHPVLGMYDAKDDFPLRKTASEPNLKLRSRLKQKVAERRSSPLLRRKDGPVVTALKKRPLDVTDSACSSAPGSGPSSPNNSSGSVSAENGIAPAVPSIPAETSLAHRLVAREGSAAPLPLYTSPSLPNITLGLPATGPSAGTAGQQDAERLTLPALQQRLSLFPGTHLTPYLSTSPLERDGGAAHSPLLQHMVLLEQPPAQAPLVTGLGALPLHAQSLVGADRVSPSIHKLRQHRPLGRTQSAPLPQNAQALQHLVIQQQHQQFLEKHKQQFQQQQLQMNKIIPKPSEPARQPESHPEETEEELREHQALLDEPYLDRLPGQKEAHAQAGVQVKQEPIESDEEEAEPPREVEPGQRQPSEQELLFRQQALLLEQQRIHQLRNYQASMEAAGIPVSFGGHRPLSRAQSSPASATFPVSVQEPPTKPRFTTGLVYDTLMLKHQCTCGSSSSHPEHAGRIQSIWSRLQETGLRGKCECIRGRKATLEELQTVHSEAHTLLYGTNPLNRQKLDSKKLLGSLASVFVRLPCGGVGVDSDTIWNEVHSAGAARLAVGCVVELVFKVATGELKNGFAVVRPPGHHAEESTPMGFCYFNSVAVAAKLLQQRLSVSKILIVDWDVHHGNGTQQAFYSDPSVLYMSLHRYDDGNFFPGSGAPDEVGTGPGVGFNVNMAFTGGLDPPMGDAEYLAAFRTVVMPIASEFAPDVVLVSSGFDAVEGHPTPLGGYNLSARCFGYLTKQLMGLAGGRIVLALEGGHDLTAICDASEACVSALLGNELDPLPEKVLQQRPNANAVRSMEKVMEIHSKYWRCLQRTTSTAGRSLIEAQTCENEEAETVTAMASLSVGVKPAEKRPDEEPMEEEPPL
Method for HDAC4: The inhibition assays for HDACs were carried out according to standard protocols. […] The reaction was stopped by the addition of 45 μl of 100 mM HEPES (pH 7.5) and 0.08% sodium dodecyl sulfate (SDS). The substrate and the product were then separated electrophoretically using a LabChip 3000 system (Caliper Life Sciences, Hopkinton, MA) with blue laser excitation and green fluorescence detection.

Take `COc1cc(/C=C/C(=O)CC(=O)/C=C/c2ccc(/C=C/C(=O)NO)cc2)ccc1O` [DMC-HA]: the IC50 in data set [1] is 2780 ± 810 nM. Further, the IC50 on HDAC4 was greater than 10000 nM. Besides, in the data set with U87 tumor xenograft, the “effects on the body weight” value is “no effects on the body weight” and the “toxicity during the administration period” value is “no observable toxicity”. Moreover, in the data set on U87 tumor xenograft (compared with controls), the tumor weight entry is reported as “significantly lower tumor weight”. Also, the “inhibition on the tumor volume” value in the data set with U87 tumor xenograft (oral route / intraperitoneal, vs. control) was 52.1%.

For orientation: IC50 means the point on the concentration scale where inhibition reaches its midpoint.
